IC50 data for 26 compounds are collected here from patent US20260315492A1, “5,6-FUSED BICYCLIC AMIDES AND COMPOSITIONS FOR USE AS 15-PROSTAGLANDIN DEHYDROGENASE MODULATORS” (AMGEN INC., priority 2023, published 2026).

The target of the experiment is T1, human recombinant 15-PGDH (Homo sapiens, UniProt P15428).
T1 sequence (P15428 1-266): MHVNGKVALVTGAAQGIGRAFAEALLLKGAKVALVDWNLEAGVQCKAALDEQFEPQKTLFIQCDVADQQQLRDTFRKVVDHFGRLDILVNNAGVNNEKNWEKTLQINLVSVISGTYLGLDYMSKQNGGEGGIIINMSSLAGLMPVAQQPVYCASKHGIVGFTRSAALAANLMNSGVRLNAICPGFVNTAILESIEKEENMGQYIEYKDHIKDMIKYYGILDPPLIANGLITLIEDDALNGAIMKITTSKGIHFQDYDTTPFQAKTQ
Kind of experiment: Inhibition of recombinant 15-PGDH enzymatic activity (NADH quantification after addition of PGE2 and NAD+). The class given is biochemical. To be noted: recombinant 15-PGDH; 15 min pre-incubation, 60-minute reaction, room temperature, pH 7.5; PGE2 and NAD+; read-out: PGDH-Lumi IC50. On the procedure: The compound dose-response of its inhibition of 15-PGDH activity was determined in human recombinant 15-PGDH enzymatical assays. These assays measured 15-PGDH enzymatic activity by quantifying the amount of NADH produced during a 60-minute reaction initiated by the addition of PGE2 and NAD+. Under the conditions of these experiments, the increase of NADH signal upon oxidation of PGE2 and reduction of NAD+ was linearly proportional to 15-PGDH enzymatic activity. The recombinant human, mouse, rat and dog 15-PGDH enzymatic assays were performed in a 25 μL volume of reaction buffer containing 50 mM Tris, pH 7.5, 0.01% Tween-20 and 100 μM DTT in a 384-well microtiter plate. In concentration-response experiments with tested compounds, 22 concentrations from 2-fold serial dilutions in DMSO were pre-incubated with 15-PGDH for 15 minutes at room temperature. Then, PGE2 and ß-NAD+ were added to initiate the 15-PGDH reaction. After 60 minutes at room temperature, the reaction was quenched and NADH signal was measured using a microtiter plate reader.
The following data (Table 11-1) provides the IC50 of each compound for inhibiting enzymatic activity of recombinant 15-PGDH in the assay described above.
Broadly, the IC50 is the concentration at which inhibition is half-maximal. Consider `Cn1cc2cc(-c3cc(-c4ccnn4C)c4cc(C(=O)N5CCSCC5)sc4n3)cnc2n1` [Compound B14, (6-(2-methyl-2H-pyrazolo[3,4-b]pyridin-5-yl)-4-(1-methyl-1H-pyrazol-5-yl)thieno[2,3-b]pyridin-2-yl)(4-thiomorpholinyl)methanone], for which the IC50 is 0.519 nM. Turning to `CN(C(=O)c1cc2c(C3CC3)cc(-c3cnc4nn(C)cc4c3)nc2s1)C1CCC1` [Compound B15, N-cyclobutyl-4-cyclopropyl-N-methyl-6-(2-methyl-2H-pyrazolo[3,4-b]pyridin-5-yl)thieno[2,3-b]pyridine-2-carboxamide], the half-inhibitory concentration (IC50) turned out to be 0.475 nM. With `Cn1cc2cc(-c3cnc4sc(C(=O)N5CCCCC5)cc4c3)cnc2n1` [Compound B16, (5-(2-methyl-2H-pyrazolo[3,4-b]pyridin-5-yl)thieno[2,3-b]pyridin-2-yl)(1-piperidinyl)methanone], the half-maximal inhibitory concentration (IC50) was found to be 9.51 nM.

For `C[C@H]1COCCN1C(=O)c1cc2c(C3CC3)cc(-c3cnc4nn(C)cc4c3)nc2s1` [Compound B17S, (4-cyclopropyl-6-(2-methyl-2H-pyrazolo[3,4-b]pyridin-5-yl)thieno[2,3-b]pyridin-2-yl)((3S)-3-methyl-4-morpholinyl)methanone], the IC50 stood at 1.17 nM. Turning to `CC(C)(C)OC(=O)N1CCN(c2ncc(-c3cc(C4CC4)c4cc(C(=O)N5CCCCC5)sc4n3)cn2)CC1` [Compound B18, 2-methyl-2-propanyl 4-(5-(4-cyclopropyl-2-(1-piperidinylcarbonyl)thieno[2,3-b]pyridin-6-yl)-2-pyrimidinyl)-1-piperazinecarboxylate], the IC50 came out at 1.58 nM. For `Cn1cc2cc(-c3cc(C4CC4)c4cc(C(=O)N5CCC(F)(F)CC5)sc4n3)cnc2n1` [Compound B19, (4-cyclopropyl-6-(2-methyl-2H-pyrazolo[3,4-b]pyridin-5-yl)thieno[2,3-b]pyridin-2-yl)(4,4-difluoro-1-piperidinyl)methanone] the value was 0.853 nM; for `Cn1cc2cc(-c3cc(C4CC4)c4cc(C(=O)N5CCC(C(F)(F)F)CC5)sc4n3)cnc2n1` [Compound B20, (4-cyclopropyl-6-(2-methyl-2H-pyrazolo[3,4-b]pyridin-5-yl)thieno[2,3-b]pyridin-2-yl)(4-(trifluoromethyl)-1-piperidinyl)methanone], 1.11 nM. Take `Cn1cc2cc(-c3ccc4cc(C(=O)N5CCC(C(F)(F)F)CC5)sc4n3)cnc2n1` [Compound B21, (6-(2-methyl-2H-pyrazolo[3,4-b]pyridin-5-yl)thieno[2,3-b]pyridin-2-yl)(4-(trifluoromethyl)-1-piperidinyl)methanone]: the IC50 was determined as 1.45 nM. For `O=C(c1cc2c(C3CC3)cc(-c3cnc(N4CCNCC4)nc3)nc2s1)N1CCCCC1` [Compound B22, (4-cyclopropyl-6-(2-(1-piperazinyl)-5-pyrimidinyl)thieno[2,3-b]pyridin-2-yl)(1-piperidinyl)methanone] the value was 3.61 nM; for `Cn1cc2cc(-c3cc(C4CC4)c4cc(C(=O)N5CCCCC5)sc4n3)cnc2n1` [Compound B23, (4-cyclopropyl-6-(2-methyl-2H-pyrazolo[3,4-b]pyridin-5-yl)thieno[2,3-b]pyridin-2-yl)(1-piperidinyl)methanone], 0.215 nM. The value for `Cn1cc2cc(-c3cc(C4CC4)c4cc(C(=O)N5CCCOCC5)sc4n3)cnc2n1` [Compound B24, (4-cyclopropyl-6-(2-methyl-2H-pyrazolo[3,4-b]pyridin-5-yl)thieno[2,3-b]pyridin-2-yl)(1,4-oxazepan-4-yl)methanone] was 0.428 nM. `Cn1cc2cc(-c3ccc4cc(C(=O)N5CCC(F)(F)CC5)sc4n3)cnc2n1` [Compound B25, (4,4-difluoro-1-piperidinyl)(6-(2-methyl-2H-pyrazolo[3,4-b]pyridin-5-yl)thieno[2,3-b]pyridin-2-yl)methanone]: the half-inhibitory concentration (IC50) was 0.352 nM. The value for `CC1CC(F)(F)CCN1C(=O)c1cc2ccc(-c3cnc4nn(C)cc4c3)nc2s1` (centres unmarked) [Compound B27] was 1.7 nM; that for `Cn1ccc2cc(-c3cnc4sc(C(=O)N5CCCCC5)cc4c3)ccc2c1=O` [Compound B28, 2-methyl-6-(2-(1-piperidinylcarbonyl)thieno[2,3-b]pyridin-5-yl)-1(2H)-isoquinolinone] was 11.9 nM. For `Cn1cc2cc(-c3ccc4cc(C(=O)N5CCOCC5(C)C)sc4n3)cnc2n1` [Compound B29, (3,3-dimethyl-4-morpholinyl)(6-(2-methyl-2H-pyrazolo[3,4-b]pyridin-5-yl)thieno[2,3-b]pyridin-2-yl)methanone] the value was 83.6 nM; for `Cn1cc2cc(-c3ccc4cc(C(=O)N5CCOCC5C#N)sc4n3)cnc2n1` (centres unmarked) [Compound B30, 4-((6-(2-methyl-2H-pyrazolo[3,4-b]pyridin-5-yl)thieno[2,3-b]pyridin-2-yl)carbonyl)-3-morpholinecarbonitrile], 212 nM; for `CC1CN(C(=O)c2cc3ccc(-c4cnc5nn(C)cc5c4)nc3s2)CCO1` (centres unmarked) [Compound B31], 1.34 nM. For `C[C@@H]1COCCN1C(=O)c1cc2ccc(-c3ccc(=O)n(C)c3)nc2s1` [Compound B32R, 1-methyl-5-(2-(((3R)-3-methyl-4-morpholinyl)carbonyl)thieno[2,3-b]pyridin-6-yl)-2(1H)-pyridinone] the value was 1350 nM; for `C[C@H]1COCCN1C(=O)c1cc2ccc(-c3ccc(=O)n(C)c3)nc2s1` [Compound B32S, 1-methyl-5-(2-(((3S)-3-methyl-4-morpholinyl)carbonyl)thieno[2,3-b]pyridin-6-yl)-2(1H)-pyridinone], 623 nM; for `C[C@@H]1COCCN1C(=O)c1cc2ccc(-c3nccs3)nc2s1` [Compound B33R, ((3R)-3-methyl-4-morpholinyl)(6-(1,3-thiazol-2-yl)thieno[2,3-b]pyridin-2-yl)methanone], 4400 nM. `C[C@H]1COCCN1C(=O)c1cc2ccc(-c3nccs3)nc2s1` [Compound B33S, ((3S)-3-methyl-4-morpholinyl)(6-(1,3-thiazol-2-yl)thieno[2,3-b]pyridin-2-yl)methanone]: the IC50 amounted to 2650 nM. For `C[C@H]1COCCN1C(=O)c1cc2ccc(-c3cc(=O)n(C)cn3)nc2s1` [Compound B34S, 3-methyl-6-(2-(((3S)-3-methyl-4-morpholinyl)carbonyl)thieno[2,3-b]pyridin-6-yl)-4(3H)-pyrimidinone] the value was 200 nM.

With `Cn1cc(-c2ccc3cc(C(=O)N4CCOCC4)sc3n2)ccc1=O` [Compound B35, 1-methyl-5-(2-(4-morpholinylcarbonyl)thieno[2,3-b]pyridin-6-yl)-2(1H)-pyridinone], the IC50 was 576 nM. Regarding `C[C@@H]1COCCN1C(=O)c1cc2ccc(-c3cc(=O)n(C)cn3)nc2s1` [Compound B36R, 3-methyl-6-(2-(((3R)-3-methyl-4-morpholinyl)carbonyl)thieno[2,3-b]pyridin-6-yl)-4(3H)-pyrimidinone], the IC50 worked out at 311 nM. The value for `Cn1cc2cc(-c3ccc4cc(C(=O)N5CC6CCC(C5)O6)sc4n3)cnc2n1` [Compound B37, (6-(2-methyl-2H-pyrazolo[3,4-b]pyridin-5-yl)thieno[2,3-b]pyridin-2-yl)(8-oxa-3-azabicyclo[3.2.1]octan-3-yl)methanone] was 2.38 nM; that for `O=C(c1cc2ccc(-c3nccs3)nc2s1)N1CCOCC1` [Compound B38, 4-morpholinyl(6-(1,3-thiazol-2-yl)thieno[2,3-b]pyridin-2-yl)methanone] was 1330 nM.
